Measurements: ChEMBL document CHEMBL3994583, “Discovery of 4-[(5-arylidene-4-oxothiazolidin-3-yl)methyl]benzoic acid derivatives active as novel potent allosteric inhibitors of protein tyrosine phosphatase 1B: In silico studies and in vitro evaluation as insulinomimetic and anti-inflammatory agents” (Eur J Med Chem, 2017)
Calls of active or inactive are those of the source. The calls are words filed in the database; no cut-off is given here.

Key:
[1] = biological target: T1, Tyrosine-protein phosphatase non-receptor type 1 (Homo sapiens, UniProt P18031); assay: Inhibition of full length recombinant human PTP1B using pNPP as substrate by spectrophotometric method
T1 sequence (P18031 whole entry): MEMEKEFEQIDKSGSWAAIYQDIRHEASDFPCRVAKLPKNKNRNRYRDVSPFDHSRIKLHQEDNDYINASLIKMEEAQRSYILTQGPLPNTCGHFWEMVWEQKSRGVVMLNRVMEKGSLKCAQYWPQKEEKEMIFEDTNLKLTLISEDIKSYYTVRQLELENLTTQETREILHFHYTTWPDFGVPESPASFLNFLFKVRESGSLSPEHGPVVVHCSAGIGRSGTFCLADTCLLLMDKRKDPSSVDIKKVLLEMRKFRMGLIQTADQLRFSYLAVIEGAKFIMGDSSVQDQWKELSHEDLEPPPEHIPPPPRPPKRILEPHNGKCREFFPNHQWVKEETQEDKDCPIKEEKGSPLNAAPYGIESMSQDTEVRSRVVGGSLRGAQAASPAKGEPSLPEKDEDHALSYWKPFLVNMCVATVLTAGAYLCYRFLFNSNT

[2] = biological target: T2, Tyrosine-protein phosphatase non-receptor type 1 (Homo sapiens) (UniProt P18031); assay: Reversible inhibition of full length recombinant human PTP1B assessed as recovery of enzyme activity up to 50 uM using pNPP as substrate preincubated for 1 hr followed by substrate addition by spectrophotometric method; set-up: scale not given: the % may be the effect or the level left
T2 sequence (whole entry): T1 sequence (P18031 whole entry)

[3] = biological target: T2, Tyrosine-protein phosphatase non-receptor type 1 (Homo sapiens); assay: Competitive inhibition of full length recombinant human PTP1B assessed as enzyme-inhibitor complex up to 8 uM using pNPP as substrate by double reciprocal plot method
HepG2 = assay: Cytotoxicity against human HepG2 cells assessed as reduction in cell viability at 25 uM after 24 hrs by MTT assay; assay type: cell-based; conditions: hepg2, 24 h
C2C12 [4] = assay: Cytotoxicity against mouse C2C12 cells assessed as reduction in cell viability after 24 hrs by MTT assay; assay type: cell-based; conditions: c2c12, 24 h
[5] = biological target: T2, Tyrosine-protein phosphatase non-receptor type 1 (Homo sapiens); assay: Inhibition of PTP1B in human HepG2 cells assessed as increase in phosphorylation of IRbeta at Tyr1162/1163 residues at 50 uM after 30 mins by Western blot method; assay type: cell-based
NCTC-2544 [6] = assay: Anti-inflammatory activity in IFN-gamma and histamine-stimulated human NCTC-2544 cells assessed as reduction in ICAM-1 protein expression by Western blot method; assay type: functional, cell-based
NCTC-2544 [7] = assay: Cytotoxicity against human NCTC-2544 cells assessed as reduction in cell viability at 10 uM by MTT assay; assay type: cell-based; conditions: nctc-2544, 10 µM
NCTC-2544 [8] = assay: Cytotoxicity against human IFN-gamma and histamine-stimulated NCTC-2544 cells assessed as reduction in cell viability at 10 uM by MTT assay; assay type: cell-based; conditions: nctc-2544, 10 µM
NCTC-2544 [9] = assay: Anti-inflammatory activity in IFN-gamma and histamine-stimulated human NCTC-2544 cells assessed as reduction in iNOS protein expression by Western blot method; assay type: functional, cell-based
NCTC-2544 [10] = assay: Anti-inflammatory activity in IFN-gamma and histamine-stimulated human NCTC-2544 cells assessed as reduction in COX-2 protein expression by Western blot method; assay type: functional, cell-based
[11] = biological target: T2, Tyrosine-protein phosphatase non-receptor type 1 (Homo sapiens); assay: Competitive inhibition of full length recombinant human PTP1B assessed as enzyme-inhibitor complex up to 6 uM using pNPP as substrate by double reciprocal plot method
[12] = biological target: T2, Tyrosine-protein phosphatase non-receptor type 1 (Homo sapiens); assay: Irreversible inhibition of full length recombinant human PTP1B assessed as recovery of enzyme activity up to 50 uM using pNPP as substrate preincubated for 1 hr followed by substrate addition by spectrophotometric method; set-up: scale not given: the % may be the effect or the level left
[13] = biological target: T1, Tyrosine-protein phosphatase non-receptor type 1; assay: Mixed non-competitive inhibition of full length recombinant human PTP1B assessed as enzyme-substrate-inhibitor complex using pNPP as substrate by double reciprocal plot method
[14] = biological target: T3, Tyrosine-protein phosphatase non-receptor type 1 (Mus musculus) (UniProt P35821); assay: Inhibition of PTP1B in mouse C2C12 cells assessed as increase in phosphorylation of IRbeta at Tyr1162/1163 residues at 50 uM after 30 mins by Western blot method; assay type: cell-based
T3 sequence (whole entry): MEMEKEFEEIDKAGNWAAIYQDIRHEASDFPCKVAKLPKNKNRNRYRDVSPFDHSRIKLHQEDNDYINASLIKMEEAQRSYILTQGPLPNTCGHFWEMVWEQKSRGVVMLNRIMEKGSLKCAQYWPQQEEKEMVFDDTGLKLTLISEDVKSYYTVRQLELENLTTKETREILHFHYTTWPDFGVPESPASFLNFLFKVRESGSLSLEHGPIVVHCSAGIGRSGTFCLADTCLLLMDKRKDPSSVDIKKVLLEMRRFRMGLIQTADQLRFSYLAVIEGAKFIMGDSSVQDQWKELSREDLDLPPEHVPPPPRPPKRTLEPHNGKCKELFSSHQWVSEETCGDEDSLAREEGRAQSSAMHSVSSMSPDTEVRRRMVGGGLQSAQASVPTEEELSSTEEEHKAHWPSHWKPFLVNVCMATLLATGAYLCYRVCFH

[15] = biological target: T3, Tyrosine-protein phosphatase non-receptor type 1 (Mus musculus); assay: Inhibition of PTP1B in mouse C2C12 cells assessed as increase in phosphorylation of Akt at Ser473 residue at 50 uM after 30 mins by Western blot method; assay type: cell-based
[16] = biological target: T1, Tyrosine-protein phosphatase non-receptor type 1; assay: Competitive inhibition of full length recombinant human PTP1B assessed as enzyme-inhibitor complex using pNPP as substrate by double reciprocal plot method
[17] = biological target: T2, Tyrosine-protein phosphatase non-receptor type 1 (Homo sapiens); assay: Inhibition of PTP1B in human HepG2 cells assessed as increase in phosphorylation of IRbeta at Tyr1162/1163 residues at 50 uM by Western blot method; assay type: cell-based; conditions: TDE = time-dependent effect
[18] = biological target: T2, Tyrosine-protein phosphatase non-receptor type 1 (Homo sapiens); assay: Inhibition of PTP1B in human HepG2 cells assessed as increase in phosphorylation of IRbeta at Tyr1162/1163 residues at 50 uM after 180 mins by Western blot method; assay type: cell-based
[19] = biological target: T2, Tyrosine-protein phosphatase non-receptor type 1 (Homo sapiens); assay: Inhibition of PTP1B in human HepG2 cells assessed as increase in phosphorylation of Akt at Ser473 residue at 50 uM after 30 mins by Western blot method; assay type: cell-based
[20] = biological target: T2, Tyrosine-protein phosphatase non-receptor type 1 (Homo sapiens); assay: Mixed-type inhibition of full length recombinant human PTP1B assessed as enzyme-substrate-inhibitor complex at 3 to 9 uM using pNPP as substrate by double reciprocal plot method
[21] = biological target: T2, Tyrosine-protein phosphatase non-receptor type 1 (Homo sapiens); assay: Mixed-type inhibition of full length recombinant human PTP1B assessed as enzyme-substrate-inhibitor complex at 3 to 7.5 uM using pNPP as substrate by double reciprocal plot method
C2C12 [22] = assay: Insulinomimetic effect in mouse C2C12 cells assessed as induction of [3H]2-deoxyglucose uptake at 50 uM preincubated for 30 mins followed by [3H]2-deoxyglucose addition measured after 15 mins by liquid scintillation counting method; assay type: functional, cell-based

| IC50 [1] [µM] | Activity [2] [%] | inhibition [5] | Activity [12] [%] | inhibition [14] | inhibition [15] | inhibition [19] | Structure (SMILES) | Activity (HepG2) | Activity (C2C12 [4]) | Activity (NCTC-2544 [6]) | Activity (NCTC-2544 [7]) | Activity (NCTC-2544 [8]) | Activity (NCTC-2544 [9]) | Activity (NCTC-2544 [10]) | other results |
| --- | --- | --- | --- | --- | --- | --- | --- | --- | --- | --- | --- | --- | --- | --- | --- |
| 5.7 | 75 to 100 | inactive |  |  |  |  | O=C(O)c1ccc(CN2C(=O)/C(=C/c3cccc(OCc4ccccc4)c3)SC2=S)cc1 | Non-Toxic | Non-Toxic | Active | Non-Toxic | Non-Toxic | Active | Active | inhibition [3]: Active |
| 14.5 |  |  | 10 to 50 | Active | inactive |  | O=C(O)c1ccc(CN2C(=O)/C(=C/c3cccc(OCCc4ccccc4)c3)S/C2=N\c2ccc(F)cc2)cc1 | Non-Toxic | Non-Toxic |  | Toxic |  |  |  | Ki [13]: 2.3 µM |
| 5.1 |  |  | 10 to 50 | Active | Active | Active | O=C(O)c1ccc(CN2C(=O)/C(=C/c3ccc(Oc4ccccc4)cc3)S/C2=N\c2ccc(F)cc2)cc1 | Non-Toxic | Non-Toxic |  | Toxic |  |  |  | Ki [16]: 9.9 µM; inhibition [17]: Tde; inhibition [18]: inactive |
| 4.2 |  | Active | 10 to 50 | Active | inactive | Active | O=C(O)c1ccc(CN2C(=O)/C(=C/c3cccc(OCc4ccccc4)c3)S/C2=N\c2ccc(F)cc2)cc1 | Non-Toxic | Non-Toxic |  | Toxic |  |  |  | Ki [13]: 1.5 µM |
| 10.6 | 75 to 100 | inactive |  |  |  |  | O=C(O)c1ccc(CN2C(=O)/C(=C/c3ccc(Oc4ccccc4)cc3)SC2=S)cc1 | Non-Toxic | Non-Toxic | Active | Non-Toxic | Non-Toxic | Active | inactive | inhibition [20]: Active |
| 1.9 | 75 to 100 | Active |  | Active | inactive | Active | O=C(O)c1ccc(CN2C(=O)/C(=C/c3ccc(OCc4ccccc4)cc3)S/C2=N\c2ccc(F)cc2)cc1 | Non-Toxic | Non-Toxic |  | Toxic |  |  |  | Ki [16]: 1.4 µM |
| 7.1 | 75 to 100 | inactive |  |  |  |  | O=C(O)c1ccc(CN2C(=O)/C(=C/c3cccc(Oc4ccccc4)c3)SC2=S)cc1 | Non-Toxic | Non-Toxic | Active | Non-Toxic | Non-Toxic | Active | Active | inhibition [20]: Active |
| 5 | 75 to 100 | inactive |  |  |  |  | O=C(O)c1ccc(CN2C(=O)/C(=C/c3ccc(OCc4ccccc4)cc3)SC2=S)cc1 | Non-Toxic | Non-Toxic | Active | Non-Toxic | Non-Toxic | Active | Active | inhibition [21]: Active |
| 1.5 |  |  | 10 to 50 | Active | inactive |  | O=C(O)c1ccc(CN2C(=O)/C(=C/c3ccc(OCCc4ccccc4)cc3)S/C2=N\c2ccc(F)cc2)cc1 | Non-Toxic | Non-Toxic |  | Toxic |  |  |  | Ki [13]: 1 µM |
| 3.5 | 75 to 100 | inactive |  |  |  |  | O=C(O)c1ccc(CN2C(=O)/C(=C/c3ccc(OCCc4ccccc4)cc3)SC2=S)cc1 | Non-Toxic | Non-Toxic |  | Toxic | Toxic | Active | Active | inhibition [3]: Active |

| Structure (SMILES) | IC50 [1] [µM] | Activity [2] [%] | inhibition [5] | Activity [12] [%] | inhibition [14] | inhibition [15] | inhibition [19] | Activity (HepG2) | Activity (C2C12 [4]) | Activity (NCTC-2544 [6]) | Activity (NCTC-2544 [7]) | Activity (NCTC-2544 [8]) | Activity (NCTC-2544 [9]) | Activity (NCTC-2544 [10]) | other results |
| --- | --- | --- | --- | --- | --- | --- | --- | --- | --- | --- | --- | --- | --- | --- | --- |
| O=C(O)c1ccc(CN2C(=O)/C(=C/c3cccc(OCCc4ccccc4)c3)SC2=S)cc1 | 1.9 | 75 to 100 | inactive |  |  |  |  | Non-Toxic | Non-Toxic | Active | Toxic | Toxic | Active | Active | inhibition [11]: Active |
| O=C(O)c1ccc(CN2C(=O)/C(=C/c3cccc(Oc4ccccc4)c3)S/C2=N\c2ccc(F)cc2)cc1 | 10 |  | Active | 10 to 50 | Active | Active | Active | Non-Toxic | Non-Toxic | inactive | Non-Toxic | Non-Toxic | Active | Active | Ki [16]: 4.4 µM; Activity (C2C12 [22]): Active |
